Like-named read-outs stand apart in the source and are kept apart here.
How the values were obtained:
HCV GT1b replicon = assay: HCV replicon assay (Huh7 cells, luciferase reporter); format: cell-based, HCV genotype 1b
Description: An HCV replicon assay was used to determine the ability of anti-miR-122 compounds to inhibit the replication of HCV genotype 1b. In this assay, test compounds are introduced into Huh7 cells stably transfected with a HCV GT1b replicon containing a luciferase reporter gene. The luciferase reporter is used as an indirect measure of HCV replication. While a GalNAc-conjugated compound is expected to be preferable for treatment of HCV infection, due to the enhanced delivery to hepatocytes, some unconjugated compounds were tested.
Selected compounds were tested at nine concentrations ranging from 0.015 uM to 100 uM. GS-7977 (sofosbuvir) was included as a positive control. Cells were plated into 96-well plates at a density of 8,000 cells per well. Compound was added to the cells for a period of 72 hours. Luminescent signal in the supernatant was detected using the Bright-Glo reagent, and used to calculate the antiviral activity of each compound. The CellTiter-Fluor reagent was used to assess cell viability. The EC50 (concentration at which 50% inhibition was observed) was calculated.

MRP2 transporter = biological target: T1, MRP2 transporter (Homo sapiens, UniProt Q92887); assay: In vitro MRP2 transporter assay (inside-out membrane vesicles, [3H]-estradiol-17β-glucuronide); format: in vitro ADME
T1 construct: expressed in transfected cells; host or cells: insect cells (transiently transfected); inside-out membrane vesicles
Method: To test the hypothesis that RG-101 was interfering with MRP2 transporter activity, an in vitro assay was performed per methods known in the art (see, for example, Vermeer et al., Drug Metab. Dispos., 2016, 44(3):453-9). In this assay, an efflux transporter-expressing vesicle is used to evaluate if a drug is a substrate or inhibitor of a transporter. Inside-out membrane vesicles are prepared from insect cells transiently transfected with a single efflux transporter, in this case MRP2. As the vesicles are in an inside-out orientation, the MRP2 transporter pumps radiolabeled substrate, [3H]-estradiol-17β-glucuronide, in an ATP-dependent manner, into the vesicles, and the accumulation of radiolabeled substrate inside the vesicle is measured. If a compound is an MRP2 transport inhibitor, the accumulation of radiolabeled substrate will be reduced relative to control samples. The inhibitory effect of the compound is evaluated by determining the IC50, the concentration resulting in 50% inhibition of transporter-mediated uptake of the radiolabeled substrate.
The in vitro MRP2 assay was performed for RG-101. Both RG-101, and RG1649, the unconjugated anti-miR of RG-101, were tested at concentrations of 0, 0.1, 0.3, 1, 3, 10, 30, and 100 uM. […] Thus, RG-101 inhibited the MPR2 transporter in this assay.
The MRP2 assay was performed for anti-miR-122 compounds selected based on potency in the HCV replicon assay and structural diversity.

miR-122 [1] = assay: In vivo potency: liver ALDOA mRNA derepression; conditions: single subcutaneous dose, liver after 7 days; for ALDOA derepression ED50 Expt #1: fold change in ALDOA mRNA relative to saline
Method: Inhibition of miR-122 leads to an increase in ALDOA expression, thus ALDOA mRNA levels can be used to measure miR-122 inhibitory activity in vivo.
(§1) Only GalNAc-conjugated compounds were tested in this assay. Compounds were administered at molar equivalents with regard to the anti-miR portion of the compound. A single, subcutaneous dose of RG-101 was administered subcutaneously at doses ranging from 0.004 to 1.116 umol/kg. Other compounds were administered in a single subcutaneous dose at doses ranging from 0.006 to 1.942 umol/kg. After 7 days the study was terminated. Liver tissue was collected for measurement of ALDOA mRNA and drug levels. Kidney tissue was collected for measurement of drug levels. Blood was collected for measurement of cholesterol.
ALDOA mRNA levels were measured, by quantitative PCR, in RNA isolated from liver. The fold change in ALDOA mRNA, relative to saline, was used to calculate an ED50 (umol/kg) for each compound (“ND” indicates “not determined), as shown in Table 4.

cholesterol = assay: In vivo potency: cholesterol reduction; conditions: single subcutaneous dose (doses in umol/kg), blood after 7 days
Method: as §1

IFIT = assay: In vivo safety: liver expression of interferon-inducible gene IFIT
Method: The compounds that met the criteria for in vivo potency were also tested for safety. The capacity of a compound to trigger a pro-inflammatory response was assessed by measuring the expression of the interferon-inducible gene IFIT in the liver. Additionally, the level of ALT following administration of a compound was also measured.

miR-122 [2] = assay: Pharmacodynamic activity in liver after oral or s.c. administration (ALDOA); format: in vivo, mice; conditions: 30 mg/kg s.c. in PBS, single dose, four days later
Method: An experiment was performed to determine whether oral administration of RG6650 would results in pharmacodynamic modulation of miR-122 in liver. Also tested was RG7443, the unconjugated anti-miR of RG6650. While an unconjugated anti-miR-122 is not as effective as a GalNAc-conjugated for the inhibition of miR-122 in the treatment of HCV, it was included for comparison in the oral administration study.
(§2) Anti-miR compounds were delivered in PBS for subcutaneous administration. Orally administered anti-miR compounds were prepared in a solution of PBS and 0.3 M sodium bicarbonate (BC) was added to a pH of 9.5. For oral dosing, animals were fasted for 12 hours prior. For all treatment groups, mice were administered a single dose and sacrificed four days later. Liver tissue was collected for pharmacodynamic and pharmacokinetic analyses. RNA was isolated from liver and kidney. […] in the liver was measured.

HCV genotype 1a = assay: Human chimeric liver mouse model of HCV infection, serum HCV RNA; format: in vivo, mice; conditions: RG6650 60 mg/kg, single administration
Description: Due to host-pathogen specificity, HCV can only infect humans and chimpanzees. As such, smaller species, such as mice, that are typically used for experimental in vivo studies cannot be infected with HCV for testing of candidate agents for the treatment of HCV infection. To address this problem, human liver chimeric mouse models may be utilized (see, e.g., Bissig et al., Proc Nat Acad Sci US A, 2007, 104:20507-20511; Bissig et al., J Clin Invest., 2010, 120: 924-930). In this model, the livers of immunodeficient mice are repopulated with human hepatocytes, resulting in a chimeric liver in which most of the hepatocytes are human hepatocytes. The mice are then infected with HCV and treated with anti-HCV agents. This mouse model is commercially available from, for example, PhoenixBio.
Anti-miR-122 compounds were tested in a human chimeric liver mouse model of HCV infection. The livers of immunodeficient mice were repopulated with human hepatocytes, resulting in a chimeric liver in which most of the hepatocytes are human hepatocytes. Six weeks following inoculation with HCV genotype 1a, a baseline viral titer was obtained for each animal included in the study.
Groups of four animals each were treated with PBS, RG-101 at a dose of 45 mg/kg, or RG6650 at a dose of 60 mg/kg. Blood was collected on Days 3, 7, 10, 14, 21, 28, 35, 42, and 49. The study was terminated on day 49.

miR-122 [3] = assay: Free uptake in primary human hepatocyte 3D spheroids, ALDOA by RT-PCR; format: cell-based
miR-122 [4] = assay: Onset of action: liver ALDOA mRNA de-repression; format: in vivo, mice; conditions: 0.014 to 1.117 umol/kg; liver 1, 3, 7 or 14 days after administration; relative to RG2634
Method: To determine whether RG6650 and RG2634 could be distinguished by onset of action, groups of mice were treated with compound at doses ranging from 0.014 to 1.117 umol/kg. Liver tissue was collected from groups of 4 to 5 mice 1, 3, 7, or 14 days following administration. RNA was isolated and ALDOA mRNA was measured.

[5] = Anti-miR amounts in liver tissue after oral or s.c. administration; format: in vivo, mice; conditions: single dose, four days later
Method: as §2

HCV = conditions: chronic treatment naïve HCV infected subjects; cited from earlier work
[6] = MRP2 transporter assay, Expt #2, read-out: IC50 uM Expt #2
[7] = 72 hours, Expt #1, read-out: EC50 uM Expt #1

T1 sequence (Q92887 whole entry): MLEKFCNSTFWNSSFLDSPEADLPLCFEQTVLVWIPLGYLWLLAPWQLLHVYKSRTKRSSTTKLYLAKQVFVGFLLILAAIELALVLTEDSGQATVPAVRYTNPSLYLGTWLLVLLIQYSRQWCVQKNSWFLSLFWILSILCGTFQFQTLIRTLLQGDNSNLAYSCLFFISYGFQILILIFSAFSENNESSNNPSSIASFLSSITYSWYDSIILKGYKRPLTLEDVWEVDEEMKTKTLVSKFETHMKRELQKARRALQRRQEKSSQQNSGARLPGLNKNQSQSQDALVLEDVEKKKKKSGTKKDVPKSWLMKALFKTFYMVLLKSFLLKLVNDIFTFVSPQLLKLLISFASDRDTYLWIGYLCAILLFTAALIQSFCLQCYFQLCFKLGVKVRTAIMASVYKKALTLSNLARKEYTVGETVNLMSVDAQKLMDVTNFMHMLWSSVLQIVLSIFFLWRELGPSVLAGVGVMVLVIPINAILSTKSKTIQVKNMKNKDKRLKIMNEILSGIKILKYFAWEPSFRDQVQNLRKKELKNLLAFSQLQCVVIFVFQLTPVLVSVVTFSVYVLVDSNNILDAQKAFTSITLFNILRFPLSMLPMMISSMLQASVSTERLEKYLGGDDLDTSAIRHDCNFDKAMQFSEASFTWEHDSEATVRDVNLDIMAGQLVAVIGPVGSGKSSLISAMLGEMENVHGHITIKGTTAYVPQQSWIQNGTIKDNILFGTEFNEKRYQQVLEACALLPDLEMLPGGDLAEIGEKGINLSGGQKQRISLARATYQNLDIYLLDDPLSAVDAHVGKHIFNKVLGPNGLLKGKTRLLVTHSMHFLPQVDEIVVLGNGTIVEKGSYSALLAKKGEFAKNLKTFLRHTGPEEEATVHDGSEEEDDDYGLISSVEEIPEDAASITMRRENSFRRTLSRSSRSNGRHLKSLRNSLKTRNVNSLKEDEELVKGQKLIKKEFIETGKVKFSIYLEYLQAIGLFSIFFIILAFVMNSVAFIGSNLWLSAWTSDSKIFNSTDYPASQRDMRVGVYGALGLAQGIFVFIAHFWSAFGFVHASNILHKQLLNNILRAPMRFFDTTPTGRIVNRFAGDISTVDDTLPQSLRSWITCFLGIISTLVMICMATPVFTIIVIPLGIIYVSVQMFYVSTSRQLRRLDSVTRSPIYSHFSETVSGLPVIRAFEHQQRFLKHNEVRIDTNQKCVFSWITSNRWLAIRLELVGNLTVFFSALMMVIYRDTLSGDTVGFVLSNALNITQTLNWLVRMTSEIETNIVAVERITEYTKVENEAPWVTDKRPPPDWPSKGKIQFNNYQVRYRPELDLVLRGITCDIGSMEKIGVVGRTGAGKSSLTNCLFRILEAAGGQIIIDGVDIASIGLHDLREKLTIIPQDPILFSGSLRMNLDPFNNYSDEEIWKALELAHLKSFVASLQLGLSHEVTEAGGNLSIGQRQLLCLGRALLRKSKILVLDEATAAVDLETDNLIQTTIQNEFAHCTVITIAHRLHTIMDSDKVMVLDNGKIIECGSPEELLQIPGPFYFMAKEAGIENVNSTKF

Compound | IC50 (MRP2 transporter; [6]) [µM] | ALDOA derepression ED50 Expt #1 (miR-122 [1]) [µmol/kg] | EC50 (HCV GT1b replicon; [7]) [µM] | Cholesterol reduction ED50 Expt #1 (cholesterol) | further results
CC(C)OC(=O)[C@H](C)N[P@](=O)(OC[C@H]1O[C@@H](n2ccc(=O)[nH]c2=O)[C@](C)(F)[C@@H]1O)Oc1ccccc1 [GS-7977, sofosbuvir, reference compound] | – | – | – | – | EC50 (HCV GT1b replicon; Hepatitis C virus, GT1B, Huh-7, 72 hours, Expt #1, read-out: EC50 uM Expt #1): 0.149 µM; EC50 (HCV GT1b replicon; Hepatitis C virus, GT1B, Huh-7, 72 hours, Expt #2, read-out: EC50 uM Expt #2): 0.098 µM
CSASCSASCSUSCSCS [RG2634] | > 100 | 0.029 | 22.5 | 0.011 | –
CSASCSASCSUSCSCS [RG497998] | – | – | 7.71 | – | –
CSASCSASCSUSCSCSAS [RG6234] | > 100 | – | 17.4 | – | –
CSASCS^POAS^POCS^POUS^POCSCSAS [RG6371] | – | 0.086 | 34.1 | 1.116 | –
CsASCSASCSUSCSCSAS [RG6370] | > 100 | 6.51 | 60.9 | 0.0007 | Expression of IFIT in the liver (pro-inflammatory response) (IFIT): increased the expression of IFIT
USCSACSACSTCSCS [RG6650] | – | – | – | – | IC50 (MRP2 transporter; MRP2 transporter assay, Expt #1, read-out: IC50 uM Expt #1): > 100 µM; IC50 (MRP2 transporter; assay conducted multiple times, read-out: MRP2 IC50 range over multiple studies): > 100 µM; Liver PD Sig (miR-122 [2]): 1.704; ALDOA derepression ED50 Expt #2 (miR-122 [1]; Expt #2): 0.091 µmol/kg; Reduction in serum HCV RNA (HCV genotype 1a): greater than 2 log; Viral titer, serum HCV RNA (HCV genotype 1a; RG-101 45 mg/kg, up to day 49, FIG. 1): significant reductions in viral titer; EC50 (miR-122 [3]; 3D PHH spheroids, three days treatment, read-out: EC50 (ALDOA levels)): 0.00207 µM; Decrease of EC50 by the GalNAc conjugate (miR-122 [3]; RG6650 compared to RG7443): ~1000 fold; Onset of action by ALDOA mRNA de-repression (miR-122 [4]): increased de-repression of ALDOA mRNA at a lower dose and earlier time point; EC50 (HCV GT1b replicon; 72 hours, Expt #2, read-out: EC50 uM Expt #2): 11.3 µM; Cholesterol reduction ED50 Expt #2 (cholesterol; Expt #2): 0.025
USCSASCSASCSUSCSCS [RG3054] | > 100 | – | > 100 | .08152 | Expression of IFIT in the liver (pro-inflammatory response) (IFIT): increased the expression of IFIT
USCSAS^POCS^POAS^POCS^POUSCSCS [RG6372] | – | 0.028 | > 100 | 0.8088 | –
UsCsACsACsTCsCs [RG7443] | – | – | – | – | Liver PD Sig (miR-122 [2]): 1.945; Liver Mean (anti-miR amount) ([5]; 30 mg/kg s.c. in PBS): 1.48 µg/g; Liver Mean (anti-miR amount) ([5]; 100 mg/kg p.o. in BC): <0.4 µg/g
miravirsen | – | – | – | – | Serum HCV RNA (HCV): reduction in serum HCV RNA

Reference: patent US12005120B2, “Galnac conjugated modified oligonucleotides as miR-122 inhibitor having HCV antiviral activity with reduced hyperbilirubinemia side-effect” (Regulus Therapeutics Inc., priority 2018, dated 2024)
